Laboratory results from US4331670A (priority 1979, dated 1982).

Legend:
[1] = tested on: Pyricularia orzae; experiment: whole plant or invertebrate; assay type: in vivo, Pyricularia orzae (rice plant, Chukyo Asahi); settings: in Oryza sativa, 120 h, read-out: Protective value
[2] = tested on: Rhizoctonia solani; experiment: whole plant or invertebrate; assay type: in vivo, Rhizoctonia solani (rice plant, Chukyo Asahi); settings: in Oryza sativa, 120 h, read-out: Preventive value
[3] = tested on: Botrytis cinerea; experiment: Test 9: protective value on cucumber inoculated with Botrytis cinerea; assay type: in vivo, Botrytis cinerea (cucumber plant, Suyo); settings: 72 h, 250 ppm, 10 ml sprayed, lesion length three days after inoculation
Procedure: In each unglazed pot having a diameter of 9 cm, cucumber plant (Suyo) was cultured. At one leaf stage, 10 ml. of each solution of each active ingredient having a concentration of 250 ppm was sprayed by a spray gun. After maintaining the pot in a green-house at 24° to 25° C. for one day, a disc (punched agar disc) obtained by culturing Botrytis cinerea on a potato-glucose-agar medium (PDA medium) was put on the leaf of cucumber to inoculate them. Three days after the inoculation, lengths of lesions were measured and each protective value was calculated as Test 2.
In accordance with the test, except the concentration of the active ingredient was decreased, the comparative tests of Compound No. 7 and Reference compound were carried out.

[4] = tested on: Plutella xylostella; experiment: Test 11: mortality of larvae of Plutella xylostella on treated cabbage leaf; assay type: in vivo; settings: foliar, 192 h, leaf dipped, emulsifiable concentrate Composition No. 3, eight days, read-out: Percent mortality
From the text: Each emulsifiable concentrate of each active ingredient as Composition No. 3 was dispersed in water at a concentration of 800 ppm. Each leaf of cabbage was dipped into each emulsion for about 10 seconds and taken up and dried in air.
A wet filter paper was put in each Petri dish (diameter of 9 cm), and each treated leaf was put on the filter paper. Larvae of Plutella xylostella at 2nd to 3rd instar were charged and the dish was covered with a cap and kept in a constant temperature chamber with lighting at 28° C. Eight days after the charge, mortality was measured and each percent mortality was calculated.

Compound	pest or weed control at 100 ppm [1] [%]	pest or weed control at 100 ppm [2] [%]	pest or weed control at 50 ppm [1] [%]	also measured
O=[N+]([O-])c1cc(C(F)(F)F)cc([N+](=O)[O-])c1Nc1ccc(Cl)cn1 [Compound No. 1]	91			
O=[N+]([O-])c1cc(C(F)(F)F)c(Cl)c([N+](=O)[O-])c1Nc1cc(Cl)cc(Cl)n1 [Compound No. 6]		100		
COc1ccc(Nc2c([N+](=O)[O-])cc(C(F)(F)F)cc2[N+](=O)[O-])c(OC)n1 [Compound No. 25]	85			
O=[N+]([O-])c1cc(C(F)(F)F)c(Cl)c([N+](=O)[O-])c1Nc1ccc(Cl)cn1 [compound 5]	100			
Cc1nc(Nc2c([N+](=O)[O-])cc(C(F)(F)F)cc2[N+](=O)[O-])c(Cl)c(C)c1Cl [compound 9]	83			
Cc1cc(Nc2c([N+](=O)[O-])cc(C(F)(F)F)c(Cl)c2[N+](=O)[O-])ncc1Br [compound 10]	86			
Cc1nc(Nc2c([N+](=O)[O-])cc(C(F)(F)F)c(Cl)c2[N+](=O)[O-])c(Cl)c(C)c1Cl [compound 11]	84			
Cc1c(Cl)cnc(Nc2c([N+](=O)[O-])cc(C(F)(F)F)cc2[N+](=O)[O-])c1Cl [compound 13]	92			
O=[N+]([O-])c1cc(C(F)(F)F)c(Cl)c([N+](=O)[O-])c1Nc1ncc(Br)cc1Br [compound 17]	100			pest or weed control at 250 ppm [3]: 92%
O=[N+]([O-])c1cc(C(F)(F)F)c(Cl)c([N+](=O)[O-])c1Nc1ncc(Cl)cc1Br [compound 18]	100	100		pest or weed control at 250 ppm [3]: 100%
O=[N+]([O-])c1cc(C(F)(F)F)c(Cl)c([N+](=O)[O-])c1Nc1ccc(C(F)(F)F)cn1 [compound 19]	100	100		pest or weed control at 250 ppm [3]: 100%
CCc1nc(Nc2c([N+](=O)[O-])cc(C(F)(F)F)c(Cl)c2[N+](=O)[O-])ccc1Br [compound 23]	93			pest or weed control at 250 ppm [3]: 81%
CCc1nc(Nc2c([N+](=O)[O-])cc(C(F)(F)F)cc2[N+](=O)[O-])ccc1Br [compound 24]	90			
O=[N+]([O-])c1cc(C(F)(F)F)c(Cl)c([N+](=O)[O-])c1Nc1ncc(Br)cc1C(F)(F)F [compound 30]	100	95		pest or weed control at 250 ppm [3]: 100%
O=[N+]([O-])c1cc(C(F)(F)F)c(Cl)c([N+](=O)[O-])c1Nc1nc(Cl)c(C(F)(F)F)cc1Cl [compound 35]	95	100		pest or weed control at 250 ppm [3]: 100%
O=[N+]([O-])c1cc(C(F)(F)F)c(F)c([N+](=O)[O-])c1Nc1ncc(C(F)(F)F)cc1Cl [compound 38]	100			
CC(C)Oc1c(C(F)(F)F)cc([N+](=O)[O-])c(Nc2ncc(C(F)(F)F)cc2Cl)c1[N+](=O)[O-] [compound 42]	95	95		mortality at 800 ppm [4]: 100%
CCCCOc1c(C(F)(F)F)cc([N+](=O)[O-])c(Nc2ncc(C(F)(F)F)cc2Cl)c1[N+](=O)[O-] [compound 43]	95	95		mortality at 800 ppm [4]: 100%
CC(C)COc1c(C(F)(F)F)cc([N+](=O)[O-])c(Nc2ncc(C(F)(F)F)cc2Cl)c1[N+](=O)[O-] [compound 44]	95	95		
CSc1c(C(F)(F)F)cc([N+](=O)[O-])c(Nc2ncc(C(F)(F)F)cc2Cl)c1[N+](=O)[O-] [compound 45]	100	100		
CCSc1c(C(F)(F)F)cc([N+](=O)[O-])c(Nc2ncc(C(F)(F)F)cc2Cl)c1[N+](=O)[O-] [compound 46]	95			
O=[N+]([O-])c1cc(C(F)(F)F)c(O)c([N+](=O)[O-])c1Nc1ncc(C(F)(F)F)cc1Cl [compound 47]	95	95		
O=[N+]([O-])c1cc(C(F)(F)F)c(Oc2ccccc2O)c([N+](=O)[O-])c1Nc1ncc(C(F)(F)F)cc1Cl [compound 48]		100		pest or weed control at 250 ppm [3]: 100%
O=[N+]([O-])c1cc(C(F)(F)F)c(Oc2cccc(O)c2)c([N+](=O)[O-])c1Nc1ncc(C(F)(F)F)cc1Cl [compound 50]		100		pest or weed control at 250 ppm [3]: 100%
O=[N+]([O-])c1cc([N+](=O)[O-])c(Nc2ccc(I)cn2)c(C(F)(F)F)c1 [compound 53]				mortality at 800 ppm [4]: 100%

Compound	pest or weed control at 100 ppm [1] [%]	pest or weed control at 100 ppm [2] [%]	pest or weed control at 50 ppm [1] [%]	also measured
O=[N+]([O-])c1cc([N+](=O)[O-])c(Nc2cccnc2Cl)c(C(F)(F)F)c1 [compound 55]				mortality at 800 ppm [4]: 100%
Cc1ccnc(Nc2c([N+](=O)[O-])cc([N+](=O)[O-])cc2C(F)(F)F)c1 [compound 56]				mortality at 800 ppm [4]: 100%
O=[N+]([O-])c1cc([N+](=O)[O-])c(Nc2ccc(C(F)(F)F)cn2)c(C(F)(F)F)c1 [compound 57]				mortality at 800 ppm [4]: 100%
O=[N+]([O-])c1cc([N+](=O)[O-])c(Nc2cccnc2)c(C(F)(F)F)c1 [compound 58]				mortality at 800 ppm [4]: 100%
O=[N+]([O-])c1cc([N+](=O)[O-])c(Nc2ccncc2)c(C(F)(F)F)c1 [compound 59]				mortality at 800 ppm [4]: 100%
Cc1cnc(Nc2c([N+](=O)[O-])cc([N+](=O)[O-])cc2C(F)(F)F)c(Br)c1 [compound 64]		100	100	mortality at 800 ppm [4]: 100%
CCc1nc(Nc2c([N+](=O)[O-])cc([N+](=O)[O-])cc2C(F)(F)F)ccc1I [compound 67]			100	mortality at 800 ppm [4]: 100%
Cc1nc(Nc2c([N+](=O)[O-])cc([N+](=O)[O-])cc2C(F)(F)F)c(Cl)cc1Cl [compound 68]		100	100	mortality at 800 ppm [4]: 100%
Cc1nc(Nc2c([N+](=O)[O-])cc([N+](=O)[O-])cc2C(F)(F)F)ccc1Cl [compound 69]			100	
O=[N+]([O-])c1cc([N+](=O)[O-])c(Nc2cc(Cl)cc(Cl)n2)c(C(F)(F)F)c1 [compound 72]		100		
Cc1cc(Cl)cc(Nc2c([N+](=O)[O-])cc([N+](=O)[O-])cc2C(F)(F)F)n1 [compound 73]		87		
COc1ccc(Nc2c([N+](=O)[O-])cc([N+](=O)[O-])cc2C(F)(F)F)nc1 [compound 74, N-(5-methoxy-2-pyridyl)-2,4-dinitro-6-trifluoromethylaniline]		93		mortality at 800 ppm [4]: 100%
O=[N+]([O-])c1cc([N+](=O)[O-])c(Nc2ccc(Cl)nc2Cl)c(C(F)(F)F)c1 [compound 75]		100	100	
O=[N+]([O-])c1cc([N+](=O)[O-])c(Nc2nc(Cl)ccc2C(F)(F)F)c(C(F)(F)F)c1 [compound 76]		100	100	
Cc1c(Cl)cnc(Nc2c([N+](=O)[O-])cc([N+](=O)[O-])cc2C(F)(F)F)c1Cl [compound 78]		100	100	
O=[N+]([O-])c1cc([N+](=O)[O-])c(Nc2c(Cl)cncc2Cl)c(C(F)(F)F)c1 [compound 79]		90		
O=[N+]([O-])c1cc([N+](=O)[O-])c(Nc2ncc(C(F)(F)F)cc2Br)c(C(F)(F)F)c1 [compound 80]		100	100	
O=[N+]([O-])c1cc([N+](=O)[O-])c(Nc2nc(Cl)c(Br)cc2C(F)(F)F)c(C(F)(F)F)c1 [compound 82]			100	
O=[N+]([O-])c1cc([N+](=O)[O-])c(Nc2ncc(Cl)cc2C(F)(F)F)c(C(F)(F)F)c1 [compound 83]			100	mortality at 800 ppm [4]: 100%
O=[N+]([O-])c1cc([N+](=O)[O-])c(Nc2ncc(Br)cc2C(F)(F)F)c(C(F)(F)F)c1 [compound 84]			100	
COc1c([N+](=O)[O-])cc(C(F)(F)F)c(Nc2ncc(C(F)(F)F)cc2Cl)c1[N+](=O)[O-] [compound 85, N-(3-chloro-5-trifluoromethyl-2-pyridyl)-2,4-dinitro-3-methoxy-6-trifluoromethylaniline]		100	100	
COc1c([N+](=O)[O-])cc(C(F)(F)F)c(Nc2ncc(Cl)cc2Cl)c1[N+](=O)[O-] [compound 86]		100	100	
Cc1cc(Nc2c([N+](=O)[O-])cc([N+](=O)[O-])cc2C(F)(F)F)ncc1Br [compound 87]		100	100	mortality at 800 ppm [4]: 100%
O=[N+]([O-])c1cc(C(F)(F)F)cc(C(F)(F)F)c1Nc1ccc(C(F)(F)F)c(Cl)n1 [compound 92]			100	
